The target of this experiment is CDK2 (UniProt P24941). Kind of experiment: Enzyme Assay.

Turning to `COc1ccc(CNc2nc(NCC(O)CN)nc3c2ncn3C(C)C)cc1` (stereo not given), the IC50 was determined as 1000 nM. Molecule `Clc1nc(NCc2ccncc2)c2ncn(C3CCCC3)c2n1` displayed an IC50 of over 5000 nM.

In the case of `COc1ccc(CNc2nc(NCc3cccnc3)nc3c2ncn3C(C)C)cc1`, the IC50 was found to be 1000 nM.

For `CC(C)n1cnc2c(NCC3CC3)nc(N(CCO)CCO)nc21`, the IC50 stood at 2000 nM. On to `CC(C)n1cnc2c(NCCCc3ccccc3)nc(N(CCO)CCO)nc21`, for which the IC50 stood at 5000 nM.

`CNc1ccccc1C1CCCN1c1nc(NCc2ccc(OC)cc2)c2ncn(C(C)C)c2n1` (stereo not given): the IC50 is over 5000 nM. In turn, `CC(C)n1cnc2c(NCc3ccc(-c4ccccc4)cc3)nc(N(C)c3ccco3)nc21` yielded an IC50 of over 5000 nM. `CC(C)n1cnc2c(NCc3ccc(C4C=CC=CC4=S)cc3)nc(N(CCO)CCO)nc21` (stereo not given) returned an IC50 of 600 nM.

The molecule `CC(C)n1cnc2c(NCc3ccc(-c4ccccc4)cc3)nc(NCCO)nc21` registered an IC50 of 3000 nM. `COc1ccc(CNc2nc(NCCCC#N)nc3c2ncn3C(C)C)cc1` came in with an IC50 of 1000 nM. In the case of `COc1ccc(CNc2nc(NCC(O)c3c[nH]c4ccccc34)nc3c2ncn3C(C)C)cc1` (stereo not given) it was 2000 nM; in that of `COc1ccc(CNc2nc(N)nc3c2ncn3C(C)C)cc1`, 1000 nM.

The molecule `COC(=O)c1ccc(CNc2nc(Cl)nc3[nH]cnc23)cc1` showed an IC50 of over 5000 nM. Take `CC(C)Cn1cnc2c(NCc3cccnc3)nc(Cl)nc21`: the IC50 is over 5000 nM. Consider `COc1ccc(CNc2nc(NCC(CO)CCO)nc3c2ncn3C(C)C)cc1` (stereo not given), for which the IC50 was over 5000 nM.

The values are drawn from the Kinase Knowledgebase extract (Sharma et al. 2016).
